Measured values reported in patent publication US12161649B2, “Inhibitors of EGFR and methods of use thereof” (DANA-FARBER CANCER INSTITUTE, INC., priority 2018, dated 2024).
Where two headings read alike, the source gives them in different places.

Tests used:
[1] = target: T1, T790M/L858R Ba/F3 cells (Homo sapiens, UniProt P00533, T790M/L858R, cells depend on it); assay: Ba/F3 cell proliferation (MTS assay); type: cell-based, murine; conditions: antiproliferative activity
T1 construct: The constructs were shuttled into the retroviral vector JP1540 using the BD Creator® System (BD Biosciences)
T1 sequence (P00533 whole entry T790M/L858R): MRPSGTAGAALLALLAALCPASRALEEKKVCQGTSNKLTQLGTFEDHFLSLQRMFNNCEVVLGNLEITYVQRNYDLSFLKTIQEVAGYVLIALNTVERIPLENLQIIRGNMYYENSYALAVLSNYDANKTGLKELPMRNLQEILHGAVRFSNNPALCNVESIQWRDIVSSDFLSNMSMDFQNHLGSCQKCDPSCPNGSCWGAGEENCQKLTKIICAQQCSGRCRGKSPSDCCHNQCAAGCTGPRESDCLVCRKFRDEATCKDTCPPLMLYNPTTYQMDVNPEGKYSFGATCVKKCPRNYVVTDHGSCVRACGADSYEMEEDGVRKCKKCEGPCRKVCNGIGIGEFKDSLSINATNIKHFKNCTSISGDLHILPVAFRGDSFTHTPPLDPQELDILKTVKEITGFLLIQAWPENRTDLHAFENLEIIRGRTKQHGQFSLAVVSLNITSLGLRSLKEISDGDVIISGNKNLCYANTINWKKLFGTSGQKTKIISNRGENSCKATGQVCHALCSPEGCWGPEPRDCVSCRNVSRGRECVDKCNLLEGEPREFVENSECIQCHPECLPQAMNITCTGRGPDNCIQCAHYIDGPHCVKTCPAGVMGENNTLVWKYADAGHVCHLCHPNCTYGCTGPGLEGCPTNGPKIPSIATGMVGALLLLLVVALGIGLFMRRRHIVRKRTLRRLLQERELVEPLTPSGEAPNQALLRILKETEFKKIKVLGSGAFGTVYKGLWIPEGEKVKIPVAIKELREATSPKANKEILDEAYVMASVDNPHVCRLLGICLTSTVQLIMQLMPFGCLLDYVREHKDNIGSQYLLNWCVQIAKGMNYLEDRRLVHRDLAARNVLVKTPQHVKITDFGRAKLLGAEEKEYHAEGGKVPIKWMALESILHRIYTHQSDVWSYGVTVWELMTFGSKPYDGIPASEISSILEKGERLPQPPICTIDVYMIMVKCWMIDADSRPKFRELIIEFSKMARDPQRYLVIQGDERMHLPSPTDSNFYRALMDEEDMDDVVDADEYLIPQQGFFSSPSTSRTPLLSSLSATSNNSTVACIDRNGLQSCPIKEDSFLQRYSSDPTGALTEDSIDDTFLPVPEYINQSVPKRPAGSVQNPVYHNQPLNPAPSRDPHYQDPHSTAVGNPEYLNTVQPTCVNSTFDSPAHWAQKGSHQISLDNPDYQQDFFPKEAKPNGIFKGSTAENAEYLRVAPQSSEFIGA
Description: The EGFR mutant L858R, Del E746_A750, L858R/T790M, DelE746_A750/T790M, L858R/T790M/C797S and Del/T790M/C797S Ba/F3 cells were previously described (Zhou et al., Nature 462, (2009), 1070-1074). All cell lines were maintained in RPMI 1640 (Cellgro; Mediatech Inc., Herndon, CA) supplemented with 10% FBS 100 units/mL penicillin, 100 units/mL streptomycin, and 2 mM glutamine. L858R cells were maintained in ACL-4 media (Invitrogen, Carlsbad, CA) supplemented with 5% FBS, 100 units/mL penicillin, 100 units/mL streptomycin, and 2 mM glutamine. The EGFR 1941R mutation was introduced via site directed mutagenesis using the Quick Change Site-Directed Mutagenesis kit (Stratagene; La Jolla, CA) according to the manufacturer's instructions. All constructs were confirmed by DNA sequencing. The constructs were shuttled into the retroviral vector JP1540 using the BD Creator® System (BD Biosciences). Ba/F3 cells were infected with retrovirus and according to standard protocols, as described previously (Zhou 2009). Stable clones were obtained by selection in puromycin (2 μg/ml).
Growth and inhibition of growth was assessed by MTS assay and was performed according to previously established methods (Zhou 2009). The MTS assay is a colorimetric method for determining the number of viable cells that is based on the bioreduction of MTS by cells to a formazan product that is soluble in cell culture medium and can be detected spectrophotometrically. Ba/F3 cells of different EGFR genotypes were exposed to treatment and the number of cells used per experiment determined empirically and has been previously established (Zhou 2009). All experimental points were set up in six wells and all experiments were repeated at least three times. […] The curves were fitted using a non-linear regression model with a sigmoidal dose response.

[2] = target: T2, recombinant EGFR 790M/L858R kinase (Homo sapiens, UniProt P00533, L858R/T790M); assay: HTRF-based EGFR biochemical assay
T2 construct: Constructs spanning residues 696-1022 of the human EGFR; GST (cleaved yes); made in house; host or cells: Sf9 insect cells
T2 sequence (P00533 696-1022 T790M/L858R): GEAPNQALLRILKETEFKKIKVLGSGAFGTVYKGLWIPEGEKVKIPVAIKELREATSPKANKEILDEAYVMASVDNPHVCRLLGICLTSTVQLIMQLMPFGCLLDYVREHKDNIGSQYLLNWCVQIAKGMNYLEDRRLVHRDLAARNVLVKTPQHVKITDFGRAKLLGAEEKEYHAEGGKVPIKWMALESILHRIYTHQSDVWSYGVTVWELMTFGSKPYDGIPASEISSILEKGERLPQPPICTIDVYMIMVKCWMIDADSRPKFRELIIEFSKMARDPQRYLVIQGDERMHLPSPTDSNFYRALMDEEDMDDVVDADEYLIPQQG
Description: EGFR biochemical assays are carried out using a homogeneous time-resolved fluorescence (HTRF) assay. The reaction mixtures contain biotin-Lck-peptide substrate, wild type, or mutant EGFR enzyme in reaction buffer. Enzyme concentrations are adjusted to accommodate varying kinase activity and ATP concentrations. Compounds of the present application are diluted into the assay mixture and IC50 values are determined using 12-point inhibition curves.
Constructs spanning residues 696-1022 of the human EGFR (including wild type and L858R, L858R/T790M, T790M, and T790M/V948R mutant sequences) were prepared in a GST-fusion format using the pTriEX system (Novagen) for expression in Sf9 insect cells essentially as described (Yun et al., PNAS 105, 2070-2075 (2008): Yun et al., Cancer Cell 11, 217-227 (2007)). EGFR kinase proteins were purified by glutathione-affinity chromatography followed by size-exclusion chromatography after cleavage with TEV or thrombin to remove the GST fusion partner following established procedures. (Yun 2008; Yun 2007).
EGFR biochemical assays were carried out using a homogeneous time-resolved fluorescence (HTRF) assay as described previously. The reaction mixtures contained 1 μM biotin-Lck-peptide substrate, wild type or mutant EGFR enzyme in reaction buffer (50 mM HEPES pH 7.1, 10 mM MgCl2, 0.01% BSA, 1 mM TCEP and 0.1 mM […]) at a final volume of 10 μL. Enzyme concentrations were adjusted to accommodate varying kinase activity and ATP concentrations (0.2-0.4 nM L858R/T790M; or 2-4 nM L858R, or 2-4 nM T790M, or 40 nM WT). All reactions were carried out at room temperature in white ProxiPlate™ 384-well Plus plates (PerkinElmer) and were quenched with 5 μL of 0.2 M EDTA at 60 min. Five μL per well of the detection reagent containing 2.5 ng PT66K (Cis-bio) and 0.05 μg SAXL (Prozyme) were added, and the plates were then incubated at room temperature for 1 hour and read with an EnVision plate reader. For IC50 determinations, compounds of the present application were diluted into assay mixture (final DMSO 0.5%), and IC50 values were determined by 12-point inhibition curves (from 50 to 0.000282 μM) in duplicate under the assay conditions as described above.

[3] = absence of cetuximab, read-out: Ba/F3 cellular activity (EC50) T790M/L858R
[4] = read-out: Ba/F3 cellular activity (EC50) T790M/L858R + Cetuximab, presence of 1 μg/mL cetuximab

| EC50 [1, 3] [nM] | EC50 [1, 4] [nM] | IC50 [2] [nM] | Compound |
| --- | --- | --- | --- |
| > 750 | > 750 | > 750 | O=C(Cc1ccc(N2CCOCC2)cc1)N[C@H]1CNc2ccc(F)cc2N(Cc2ccccc2)C1=O [Compound I-3, (S)-N-(1-benzyl-8-fluoro-2-oxo-2,3,4,5-tetrahydro-1H-benzo[b][1,4]diazepin-3-yl)-2-(4-morpholinophenyl)acetamide] |
| > 750 | < 250 | < 250 | O=C1[C@@H](N2Cc3ccc(F)cc3C2=O)CNc2ccc(F)cc2N1Cc1ccccc1 [Compound I-10, (S)-1-benzyl-8-fluoro-3-(6-fluoro-1-oxoisoindolin-2-yl)-1,3,4,5-tetrahydro-2H-benzo[b][1,4]diazepin-2-one] |
| > 750 | > 750 | > 750 | CN1CCN(c2ccc3c(c2)C(=O)N([C@H]2CNc4ccc(F)cc4N(Cc4ccccc4)C2=O)C3)CC1 [Compound I-13, (S)-1-benzyl-8-fluoro-3-(6-(4-methylpiperazin-1-yl)-1-oxoisoindolin-2-yl)-1,3,4,5-tetrahydro-2H-benzo[b][1,4]diazepin-2-one] |
| > 750 | < 250 | < 250 | CN1CCN(c2ccc(-c3ccc4c(c3)CN([C@H]3CNc5ccc(F)cc5N(Cc5ccccc5)C3=O)C4=O)cc2)CC1 [Compound I-14, (S)-1-benzyl-8-fluoro-3-(5-(4-(4-methylpiperazin-1-yl)phenyl)-1-oxoisoindolin-2-yl)-1,3,4,5-tetrahydro-2H-benzo[b][1,4]diazepin-2-one] |

The next lines start with the compound.

| Compound | EC50 [1, 3] [nM] | EC50 [1, 4] [nM] | IC50 [2] [nM] |
| --- | --- | --- | --- |
| CN1CCN(c2ccc(C(=O)N[C@H]3CNc4ccc(F)cc4N(Cc4ccccc4)C3=O)cc2)CC1 [Compound I-1, (S)-N-(1-benzyl-8-fluoro-2-oxo-2,3,4,5-tetrahydro-1H-benzo[b][1,4]diazepin-3-yl)-4-(4-methylpiperazin-1-yl)benzamide] | > 750 | > 750 | > 750 |
| CN1CCN(c2ccc(NC(=O)N[C@H]3CNc4ccc(F)cc4N(Cc4ccccc4)C3=O)cc2)CC1 [Compound I-2, (S)-1-(1-benzyl-8-fluoro-2-oxo-2,3,4,5-tetrahydro-1H-benzo[b][1,4]diazepin-3-yl)-3-(4-(4-methylpiperazin-1-yl)phenyl)urea] | > 750 | > 750 | > 750 |
| CN1CCN(c2cccc(C(=O)N[C@H]3CNc4ccc(F)cc4N(Cc4ccccc4)C3=O)c2)CC1 [Compound I-4, (S)-N-(1-benzyl-8-fluoro-2-oxo-2,3,4,5-tetrahydro-1H-benzo[b][1,4]diazepin-3-yl)-3-(4-methylpiperazin-1-yl)benzamide] | > 750 | > 750 | > 750 |
| COc1cc(N2CCOCC2)ccc1C(=O)N[C@H]1CNc2ccc(F)cc2N(Cc2ccccc2)C1=O [Compound I-5, (S)-N-(1-benzyl-8-fluoro-2-oxo-2,3,4,5-tetrahydro-1H-benzo[b][1,4]diazepin-3-yl)-2-methoxy-4-morpholinobenzamide] | > 750 | > 750 | > 750 |
| CN1CCN(c2ccnc(C(=O)N[C@H]3CNc4ccc(F)cc4N(Cc4ccccc4)C3=O)c2)CC1 [Compound I-6, (S)-N-(1-benzyl-8-fluoro-2-oxo-2,3,4,5-tetrahydro-1H-benzo[b][1,4]diazepin-3-yl)-4-(4-methylpiperazin-1-yl)picolinamide] | > 750 | > 750 | > 750 |
| COc1ccc(C2=CCNCC2)cc1C(=O)N[C@H]1CNc2ccc(F)cc2N(Cc2ccccc2)C1=O [Compound I-7, (S)-N-(1-benzyl-8-fluoro-2-oxo-2,3,4,5-tetrahydro-1H-benzo[b][1,4]diazepin-3-yl)-2-methoxy-5-(1,2,3,6-tetrahydropyridin-4-yl)benzamide] | > 750 | > 750 | > 750 |
| O=C(N[C@H]1CNc2ccc(F)cc2N(Cc2ccccc2)C1=O)c1ccc(N2CCOCC2)cn1 [Compound I-8, (S)-N-(1-Benzyl-8-fluoro-2-oxo-2,3,4,5-tetrahydro-1H-benzo[b][1,4]diazepin-3-yl)-5-morpholinopicolinamide] | > 750 | > 750 | > 750 |
| O=C(Cc1ccc(-n2cnnn2)cc1)N[C@H]1CNc2ccc(F)cc2N(Cc2ccccc2)C1=O [Compound I-9, (S)-2-(4-(1H-tetrazol-1-yl)phenyl)-N-(1-benzyl-8-fluoro-2-oxo-2,3,4,5-tetrahydro-1H-benzo[b][1,4]diazepin-3-yl)acetamide] | > 750 | > 750 | > 750 |
| CN1CCN(c2ccc(-c3ccc4c(c3)C(=O)N([C@H]3CNc5ccc(F)cc5N(Cc5ccccc5)C3=O)C4)cc2)CC1 [Compound I-11, (S)-1-benzyl-8-fluoro-3-(6-(4-(4-methylpiperazin-1-yl)phenyl)-1-oxoisoindolin-2-yl)-1,3,4,5-tetrahydro-2H-benzo[b][1,4]diazepin-2-one] | > 750 | < 250 | < 250 |
